Laboratory results as given in EP2974714B1, “USE OF DERIVATIVES WITH C-O-P BONDS IN PATIENTS WITH RENAL FAILURE” (LABORATORIS SANIFIT, S.L., priority 2013, dated 2014).

Experiments:
[1] = In vitro affinity (adsorption) of IP6 for hydroxyapatite; assay type: binding; conditions: for maximum adsorption of IP6 on the HAP surface: 7.6 µM IP6 for 8 hours
Protocol: […] The total quantity of IP6 bound to the surface of the target (HAP) was quantified.
To characterise the behaviour of IP6 binding, the EC50 and Emax for the adsorption thereof on HAP were calculated. This was performed using a non-linear regression model (Log[agonist] vs. response - slope variable; GraphPad Prism software).

[2] = Calcium chelation by IP6 in vitro (calcium-selective electrode); assay type: physicochemical; conditions: 2.5 mM calcium in NaCl 0.15 M, pH 7.40
Protocol: Experimental: a 2.5 mM of calcium in NaCl 0.15 M, pH 7.40, was pipetted with increasing concentrations of IP6. The amount of free ionic calcium was measured potentiometrically using a calcium-selective electrode and a potentiometer.

[3] = test system: tissue calcification in an animal model of chronic renal impairment (adenine); assay: Adenine model, bolus-type s.c. administration; assay type: in vivo, male Wistar rats; conditions: s.c. bolus 3, 10 and 30 mg/kg, 28 days, adenine uraemic rats
Protocol: Experimental: CKD was induced in 4 groups (n=12) of male Wistar rats by oral (p.o.) treatment with adenine (600 mg/kg/day) daily for 10 days. After treatment with adenine, the rats received alpha-calcidol at a dose of 300 ng/kg (3x/week, p.o.) until day 28. From day 0 until sacrifice (day 28), the animals were treated with a 2 ml/kg s.c. bolus of 0, 3, 10 and 30 mg/kg IP6. At each treatment, 3 additional animals were included to evaluate the […] for IP6. After 28 days the aorta, heart and right kidney were collected, and the tissue calcium content determined.

[4] = In vitro binding kinetics of IP6 to HAP; conditions: 130 mg HAP
Protocol: Experimental: 130 mg HAP was incubated (in triplicate) with 7.6 µM IP6, at 37°C, pH 7.4, for different time intervals while stirring continuously.

[5] = Release of IP6 from the HAP surface; assay type: binding; conditions: after incubation for 2 days in IP6-free solution
Protocol: Experimental: 130 mg HAP was incubated in triplicate with 7.6 µM IP6, at 37°C, pH 7.4, for different time intervals while stirring continuously. Subsequently, the HAP with adsorbed IP6 was placed in an IP6-free solution and the amount of IP6 released from the surface thereof evaluated at different timepoints.

[6] = PK profile of IP6 by 4 h intravenous infusion in normal and uraemic rats; assay type: in vivo, Wistar rats
Protocol: Experimental: Wistar rats with normal kidney function were treated daily with a dose of 10 or 50 mg/kg IP6 by intravenous infusion over 4 h. Plasma samples were obtained at different timepoints up to 4 hours on day 0. The animals were then treated orally with 600 mg/kg (p.o.) adenine for 10 days to induce renal impairment. The animals were treated with alpha-calcidol (300 ng/kg) on days 11 and 13 and plasma samples were collected at different timepoints up to 4 hours on day 14. The plasma IP6 levels were quantified for both groups.

[7] = test system: cardiovascular function; assay: Cardiovascular function after bolus-type intravenous administration in conscious dogs by telemetry; assay type: in vivo
Protocol: Experimental: 4 male dogs, 2 per dose, were injected with 10, 15 and 30 mg/kg. Two washout days were introduced between the different doses. The ECGs were recorded telemetrically. Blood ionic calcium concentrations were determined on different days to the ECG measurements.

[8] = test system: vit D-induced cardiovascular calcification in rats; assay: Inhibition of vit D-induced (300,000 IU/kg x 3) cardiovascular calcification by s.c. IP6; assay type: in vivo, male SD rats
Protocol: Experimental: male SD rats were divided into 9 groups. Two of said groups (sham and control groups) received s.c. saline 2 ml/kg; 6 groups received s.c. […] One group was treated with a s.c. Alzet pump loaded with 200 mg/ml IP6. Calcification was induced by oral administration of 300,000 IU/kg vitamin D (2 ml/kg) for 3 days starting on treatment day 3. […] The calcium content in heart, aorta and kidneys was determined after treatment for 7 days.

[9] = test system: progression of vitamin D-induced vascular calcification; assay: Progression of vitamin D-induced calcification (100,000 IU/kg x 3), rat model for 2 weeks; assay type: in vivo, SD rats; conditions: highest dose (60 mg/kg s.c.), days 5 to 14
Protocol: Experimental: 48 SD rats were treated x3 with vitamin D (s.c. 100,000 IU/kg) to induce tissue calcification. Calcification was allowed to progress for 5 days, and treatment with 0, 10 or 60 mg/kg IP6 s.c. was administered from day 5 until day 14. Calcification of the kidneys and heart was evaluated.

[10] = test system: tissue calcification in uraemic animals; assay: Adenine model, non-bolus-type intravascular administration; assay type: in vivo, male Wistar rats
Protocol: Experimental: CKD was induced in 2 groups (n=12) of male Wistar rats by oral (p.o.) treatment with adenine (600 mg/kg/day) daily for 10 days. After treatment with adenine, the rats received alpha-calcidol at a dose of 300 ng/kg (3x/week, p.o.) until day 28. From day 0 until sacrifice (day 28), the animals were treated with an intravascular infusion of 50 mg/kg IP6 or saline for 4 hours. After 28 days the aorta and heart were collected, and the tissue calcium content determined.

[11] = uraemic rats, 10 mg/kg i.v. infusion over 4 h
[12] = uraemic rats, 50 mg/kg i.v. infusion over 4 h
[13] = intravascular infusion of 50 mg/kg for 4 hours, 28 days, adenine uraemic rats

O=P(O)(O)O[C@H]1[C@H](OP(=O)(O)O)[C@@H](OP(=O)(O)O)[C@H](OP(=O)(O)O)[C@@H](OP(=O)(O)O)[C@H]1OP(=O)(O)O [IP6, inositol hexaphosphate]
maximum adsorption of IP6 on the HAP surface ([1]; 25 mg HAP): 6.42 mg | EC50 ([1]; 25 mg HAP, non-linear regression): 460 nM | EC50 ([1]; 75 mg HAP, non-linear regression): 960 nM | EC50 ([1]; 130 mg HAP, non-linear regression): 1220 nM | maximum adsorption of IP6 on the HAP surface ([1]; 300 mg HAP): 4.8 mg | EC50 ([1]; 300 mg HAP, non-linear regression): 2090 nM | IP6 concentration at saturation of adsorption on HAP ([1]; 37°C, pH 7.4): ≥ 7.6 µM | Emax for adsorption on HAP (saturation value) ([1]; non-linear regression): 6.42 mg/g | IP6 concentration above which ionic calcium chelation is significant [2]: above 379 µM | IP6 concentration at which chelation saturates [2]: 3788 µM | EC50 ([2]; read-out: EC50 of ionic calcium chelation): 539000 nM | calcification inhibition (aorta, heart, right kidney) [3]: no evidence of calcification inhibition | time at which adsorption maximum is reached ([4]; 7.6 µM IP6, 37°C, pH 7.4): 60 min | share of maximum binding achieved ([4]; after 5 minutes, 7.6 µM IP6): Around 80% | IP6 remaining bound to the HAP surface [5]: 80% | concentration at 4 h ([6]; Wistar, rat, plasma, iv, uraemic rats, 10 mg/kg i.v. infusion over 4 h, read-out: plasma concentration after 4 hours): 1200 nM | peak plasma concentration ([6]; normal rats, 10 mg/kg i.v. infusion over 4 h): 8.4 µM | peak plasma concentration ([6]; normal rats, 50 mg/kg i.v. infusion over 4 h): 68.4 µM | peak concentration [6, 11]: 2.8 µM | time of peak concentration [6, 11]: 30 min | peak plasma concentration [6, 12]: 24.6 µM | time of peak plasma concentration [6, 12]: 4 h | period with approximately constant concentration ([6]; uraemic rats, 50 mg/kg i.v. infusion, from hour 1 to hour 4): 3 h | dose above which mild tachycardia and prolonged QTc interval were observed ([7]; i.v. bolus): above 15 mg/kg | dose above which tachycardia and QTc prolongation become significant ([7]; i.v. bolus): above 30 mg/kg | effects on ECG parameters or ionic calcium concentrations ([7]; i.v. bolus 10 mg/kg): no significant effects | decrease in ionic calcium ([7]; i.v. bolus, correlated with the prolonged QTc interval): 30% | reduction in calcification ([8]; prolonged administration, s.c. Alzet pump loaded with 200 mg/ml IP6): 85% | efficacy (inhibition of calcification) ([8]; s.c. doses of 60 and 100 mg/kg): approximately 60% | minimum dose that produced a significant effect on calcification ([8]; s.c., 7 days treatment): 10 mg/kg | EC50 for inhibition of aortic calcification ([8]; s.c., dose-response): 3.75 mg/kg | Emax for inhibition of aortic calcification ([8]; s.c., dose-response): 65.5% | inhibition of the progression of heart calcification [9]: 100% | inhibition of the progression of renal calcification [9]: 95% | reduction of plasma IP6 levels by the end of the experiment ([10]; due to high metabolic rate, 50 mg/kg infusion, uraemic rats): 90% | reduction in average calcification in the aorta [10, 13]: 80% | reduction in average calcification in the heart [10, 13]: 85%
